Source: patent publication US9085576B2 (AMGEN INC., priority 2013, dated 2015)

How the values were obtained:
[1] = molecular target: BACE (Homo sapiens (Human), UniProt P56817); assay: In vitro BACE cell-based assay (Aβ40 in conditioned medium, sandwich ELISA)
[2] = molecular target: Beta Secretase enzyme (BACE) (Homo sapiens (Human), UniProt P56817); assay: In vitro enzymatic BACE FRET assay; type: biochemical; settings: read-out: BACE1 Enzyme assay IC50
[3] = molecular target: Cathepsin D (Cat D) (Homo sapiens (Human), UniProt P07339); assay: In vitro enzymatic Cathepsin D (Cat D) FRET assay; type: biochemical; settings: read-out: CatD IC50
Sequence of Cathepsin D (Cat D) (P07339 65-412, species assumed): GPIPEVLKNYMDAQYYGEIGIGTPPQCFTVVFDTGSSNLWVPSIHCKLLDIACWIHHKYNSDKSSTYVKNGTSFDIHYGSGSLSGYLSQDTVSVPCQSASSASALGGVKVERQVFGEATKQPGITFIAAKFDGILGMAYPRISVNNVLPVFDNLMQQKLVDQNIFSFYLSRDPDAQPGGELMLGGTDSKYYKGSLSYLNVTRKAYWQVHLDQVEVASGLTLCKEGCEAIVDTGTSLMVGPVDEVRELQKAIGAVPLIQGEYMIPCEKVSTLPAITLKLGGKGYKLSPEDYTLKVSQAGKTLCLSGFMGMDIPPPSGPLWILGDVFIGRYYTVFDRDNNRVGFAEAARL

Sequence of Beta Secretase enzyme (BACE) (P56817 46-501): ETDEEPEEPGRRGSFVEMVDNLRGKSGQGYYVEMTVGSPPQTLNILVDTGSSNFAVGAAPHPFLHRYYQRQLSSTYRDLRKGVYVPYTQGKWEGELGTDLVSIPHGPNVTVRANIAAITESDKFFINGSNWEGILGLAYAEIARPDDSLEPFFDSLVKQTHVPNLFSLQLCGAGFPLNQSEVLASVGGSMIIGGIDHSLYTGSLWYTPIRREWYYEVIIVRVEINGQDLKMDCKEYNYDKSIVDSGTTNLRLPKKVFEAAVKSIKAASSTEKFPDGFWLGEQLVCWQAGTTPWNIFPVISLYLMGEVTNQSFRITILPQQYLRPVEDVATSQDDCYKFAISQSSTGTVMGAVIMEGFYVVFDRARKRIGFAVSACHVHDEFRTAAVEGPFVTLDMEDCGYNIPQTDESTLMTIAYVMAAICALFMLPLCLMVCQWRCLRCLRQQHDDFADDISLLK
Sequence of BACE (P56817 46-501, species assumed): as the sequence (P56817 46-501) above

Cc1cc(OC(F)F)cnc1C(=O)Nc1ccc(Cl)c([C@@]2(C(F)F)N=C(N)O[C@@H]3C[C@@H]32)c1 [Example 212, N-(3-((1R,5S,6R)-3-amino-5-(difluoromethyl)-2-oxa-4-azabicyclo[4.1.0]hept-3-en-5-yl)-4-chlorophenyl)-5-(difluoromethoxy)-3-methylpicolinamide]
IC50 [1]: 0.0385 µM | IC50 [2]: 0.0469 µM | IC50 [3]: 928 µM

NC1=N[C@](c2cc(NC(=O)c3ccc(Br)cn3)ccc2F)(C(F)F)[C@@H]2C[C@@H]2O1 [Example 296, N-(3-((1S,5R,6S)-3-amino-5-(difluoromethyl)-2-oxa-4-azabicyclo[4.1.0]hept-3-en-5-yl)-4-fluorophenyl)-5-bromopicolinamide]
IC50 [1]: 3.51 µM | IC50 [2]: 4.19 µM | IC50 [3]: 1860 µM

Cn1cc(C(=O)Nc2ccc(F)c([C@@]3(C(F)F)N=C(N)O[C@@H]4C[C@@H]43)c2)ccc1=O [Example 248, N-(3-((1R,5S,6R)-3-amino-5-(difluoromethyl)-2-oxa-4-azabicyclo[4.1.0]hept-3-en-5-yl)-4-fluorophenyl)-1-methyl-6-oxo-1,6-dihydropyridine-3-carboxamide]
IC50 [1]: > 15.6 µM | IC50 [2]: 40.5 µM | IC50 [3]: 1230 µM

Cc1cc(C#N)cnc1C(=O)Nc1cc(F)c(C)c([C@@]2(C(F)F)N=C(N)O[C@@H]3C[C@@H]32)c1 [Example 310, N-(3-((1R,5S,6R)-3-amino-5-(difluoromethyl)-2-oxa-4-azabicyclo[4.1.0]hept-3-en-5-yl)-5-fluoro-4-methylphenyl)-5-cyano-3-methylpicolinamide]
IC50 [1]: > 15.6 µM | IC50 [2]: > 40 µM | IC50 [3]: 1770 µM

COc1cnc(C(=O)Nc2ccc(Cl)c([C@@]3(C(F)F)N=C(N)O[C@@H]4C[C@@H]43)c2)c(C)c1 [Example 101, N-(3-((1R,5S,6R)-3-amino-5-(difluoromethyl)-2-oxa-4-azabicyclo[4.1.0]hept-3-en-5-yl)-4-chlorophenyl)-5-methoxy-3-methylpicolinamide]
IC50 [1]: 0.0598 µM | IC50 [2]: 0.0971 µM | IC50 [3]: 258 µM

COC[C@]1(c2cc(NC(=O)c3cnc(OC)cn3)ccc2F)N=C(N)O[C@@H]2C[C@@H]21 [Example 80, N-(3-((1R,5S,6R)-3-amino-5-(methoxymethyl)-2-oxa-4-azabicyclo[4.1.0]hept-3-en-5-yl)-4-fluorophenyl)-5-methoxypyrazine-2-carboxamide]
IC50 [1]: 0.183 µM | IC50 [2]: 7.95 µM | IC50 [3]: > 400 µM

Cc1cc(C(F)F)cnc1C(=O)Nc1cnc(F)c([C@@]2(CF)N=C(N)O[C@@H]3C[C@@H]32)c1 [Example 234, N-(5-((1R,5S,6R)-3-amino-5-(fluoromethyl)-2-oxa-4-azabicyclo[4.1.0]hept-3-en-5-yl)-6-fluoropyridin-3-yl)-5-(difluoromethyl)-3-methylpicolinamide]
IC50 [1]: 0.0596 µM | IC50 [2]: 0.283 µM | IC50 [3]: > 14.8 µM

Cc1cc(C(F)F)cnc1C(=O)Nc1ccc(F)c([C@@]2(C(F)F)N=C(N)O[C@@H]3C[C@@H]32)c1 [Example 186, N-(3-((1R,5S,6R)-3-amino-5-(difluoromethyl)-2-oxa-4-azabicyclo[4.1.0]hept-3-en-5-yl)-4-fluorophenyl)-5-(difluoromethyl)-3-methylpicolinamide]
IC50 [1]: 0.0345 µM | IC50 [2]: 0.061 µM | IC50 [3]: 768 µM

N#Cc1ccc(C(=O)Nc2ccc(F)c([C@@]3(C(F)F)N=C(N)O[C@@H]4C[C@@H]43)n2)nc1 (racemic) [Example 330]
IC50 [1]: 0.0326 µM | IC50 [2]: 0.101 µM | IC50 [3]: 139 µM

NC1=N[C@@](c2cc(NC(=O)C3(c4ccc(Cl)cc4)CC3)ccc2F)(C(F)F)[C@H]2C[C@H]2O1 [Example 245, N-(3-((1R,5S,6R)-3-amino-5-(difluoromethyl)-2-oxa-4-azabicyclo[4.1.0]hept-3-en-5-yl)-4-fluorophenyl)-1-(4-chlorophenyl) cyclopropanecarboxamide]
IC50 [1]: > 15.6 µM | IC50 [2]: > 40 µM | IC50 [3]: 447 µM

NC1=N[C@](c2cccc(NC(=O)c3ccc(Cl)cn3)c2)(C(F)F)[C@@H]2C[C@@H]2O1 [Example 264, N-(3-((1 S,5R,6S)-3-amino-5-(difluoromethyl)-2-oxa-4-azabicyclo[4.1.0]hept-3-en-5-yl)phenyl)-5-chloropicolinamide]
IC50 [1]: > 15.6 µM | IC50 [2]: 35.9 µM | IC50 [3]: > 400 µM

COC[C@@]1(c2cc(NC(=O)c3cnc(OC)cn3)ccc2F)N=C(N)O[C@H]2C[C@H]21 [Example 81, N-(3-((1S,5R,6S)-3-amino-5-(methoxymethyl)-2-oxa-4-azabicyclo[4.1.0]hept-3-en-5-yl)-4-fluorophenyl)-5-methoxypyrazine-2-carboxamide]
IC50 [1]: > 15.6 µM | IC50 [2]: > 40 µM | IC50 [3]: > 400 µM

NC1=N[C@@](c2cc(Nc3nccc4cc(Cl)cnc34)ccc2F)(C(F)F)[C@H]2C[C@H]2O1 [Example 362, (1R,5S,6R)-5-(5-((3-chloro-1,7-naphthyridin-8-yl)amino)-2-fluorophenyl)-5-(difluoromethyl)-2-oxa-4-azabicyclo[4.1.0]hept-3-en-3-amine]
IC50 [1]: 0.254 µM | IC50 [2]: 0.0335 µM | IC50 [3]: 400 µM

NC1=N[C@@](c2cc(NC(=O)c3cnc(Cl)cn3)ccc2F)(C(F)F)[C@H]2C[C@H]2O1 [Example 261, N-(3-((1R,5S,6R)-3-amino-5-(difluoromethyl)-2-oxa-4-azabicyclo[4.1.0]hept-3-en-5-yl)-4-fluorophenyl)-5-chloropyrazine-2-carboxamide]
IC50 [1]: 1.59 µM | IC50 [2]: 0.037 µM | IC50 [3]: 444 µM

Cn1cc2ccnc(Nc3ccc(F)c([C@@]4(C(F)F)N=C(N)O[C@@H]5C[C@@H]54)c3)c2n1 [Example 358]
IC50 [1]: 0.134 µM | IC50 [2]: 2.09 µM | IC50 [3]: > 400 µM

NC1=N[C@](CF)(c2cc(NC(=O)c3nn(C(F)F)cc3Cl)cc(F)c2F)[C@H]2C[C@H]2O1 [Example 46, N-(3-((1R,5S,6R)-3-amino-5-(fluoromethyl)-2-oxa-4-azabicyclo[4.1.0]hept-3-en-5-yl)-4,5-difluorophenyl)-4-chloro-1-(difluoromethyl)-1H-pyrazole-3-carboxamide]
IC50 [1]: 0.0046 µM | IC50 [2]: 0.018 µM | IC50 [3]: 174 µM

NC1=N[C@](CF)(c2cc(Nc3nccc4cc(Cl)cnc34)ccc2F)[C@H]2C[C@H]2O1 [Example 345, (1R,5S,6R)-5-(5-((3-chloro-1,7-naphthyridin-8-yl)amino)-2-fluorophenyl)-5-(fluoromethyl)-2-oxa-4-azabicyclo[4.1.0]hept-3-en-3-amine]
IC50 [1]: 0.0543 µM | IC50 [2]: 0.0713 µM | IC50 [3]: 282 µM

NC1=N[C@@](c2cc(NC(=O)c3coc(C#CC4CC4)n3)ccc2F)(C(F)F)[C@H]2C[C@H]2O1 [Example 151, N-(3-((1R,5S,6R)-3-amino-5-(difluoromethyl)-2-oxa-4-azabicyclo[4.1.0]hept-3-en-5-yl)-4-fluorophenyl)-2-(cyclopropylethynyl) oxazole-4-carboxamide]
IC50 [1]: 1.07 µM | IC50 [2]: 24.8 µM | IC50 [3]: 302 µM

COc1ccc(C(=O)Nc2ccc(F)c([C@@]3(CF)N=C(N)O[C@@H]4C[C@@H]43)c2F)nc1 [Example 79, N-(3-((1R,5S,6R)-3-amino-5-(fluoromethyl)-2-oxa-4-azabicyclo[4.1.0]hept-3-en-5-yl)-2,4-difluorophenyl)-5-methoxypicolinamide]
IC50 [1]: 0.12 µM | IC50 [2]: 3.04 µM | IC50 [3]: 942 µM
